Measurements reported in patent US7375259B1, “Solanum tuberosum sterol alkaloid glycosyltransferase (SGT) a novel solanidine glucosyltransferase SGT2 and uses thereof” (priority 2005, dated 2008).

How the values were obtained:
[1] = system: recombinant SGT2; assay: in vitro solanidine glycosyltransferase assay of recombinant SGT2 with Solanaceous aglycones and UDP-[3H]sugar donors; conditions: for SGT2 galactosyltransferase activity with aglycone substrate: UDP-[3H]galactose as sugar donor, activity threshold 2-fold the reaction blank; for SGT2 glucosyltransferase activity with aglycone substrate: UDP-[3H]glucose as sugar donor, 60 min, 37° C., SGAs and UDP-sugars 33 μM
[2] = system: SGT2; assay type: biochemical, Solanum tuberosum; conditions: 1,000 μM inhibitor
[3] = system: Colorado potato beetle; conditions: artificial diets; Kowalski et al. 1999; cited from earlier work

**Q.** For `C[C@H]1CC[C@@H]2[C@@H](C)[C@H]3[C@H](C[C@H]4[C@@H]5CC=C6C[C@@H](O)CC[C@]6(C)[C@H]5CC[C@]34C)N2C1` [solanidine], which “SGT2 galactosyltransferase activity with aglycone substrate” value [1] is on record?
**A.** No activity

**Q.** And the “SGT2 glucosyltransferase activity with aglycone substrate” value [1]?
**A.** maximum activity

**Q.** What does the source list for `C[C@@H]1CC[C@@]2(NC1)O[C@H]1C[C@H]3[C@@H]4CC=C5C[C@@H](O)CC[C@]5(C)[C@H]4CC[C@]3(C)[C@H]1[C@@H]2C` [solasodine]?
**A.** SGT2 galactosyltransferase activity with aglycone substrate [1]: No activity; SGT2 glucosyltransferase activity with aglycone substrate [1]: readily capable of utilizing UDP-glucose as a substrate

**Q.** What does the source list for `C[C@H]1CC[C@]2(NC1)O[C@H]1C[C@H]3[C@@H]4CC[C@H]5C[C@@H](O)CC[C@]5(C)[C@H]4CC[C@]3(C)[C@H]1[C@@H]2C` [tomatidine]?
**A.** SGT2 galactosyltransferase activity with aglycone substrate [1]: No activity; SGT2 glucosyltransferase activity with aglycone substrate [1]: readily capable of utilizing UDP-glucose as a substrate

**Q.** Which “inhibition of SGT2 activity (in words)” value [2] does the source give for `C[C@H]1CC[C@@H]2[C@@H](C)[C@H]3[C@H](C[C@H]4[C@@H]5CC=C6C[C@@H](O[C@@H]7O[C@H](CO)[C@H](O[C@@H]8O[C@@H](C)[C@H](O)[C@@H](O)[C@H]8O)[C@H](O)[C@@H]7O[C@@H]7O[C@@H](C)[C@@H](O)[C@@H](O)[C@H]7O)CC[C@]6(C)[C@H]5CC[C@]34C)N2C1` [α-chaconine] here?
**A.** completely inhibited

**Q.** What does the source list for `C[C@H]1CC[C@@H]2[C@@H](C)[C@H]3[C@H](C[C@H]4[C@@H]5CC=C6C[C@@H](O[C@@H]7O[C@H](CO)[C@H](O)[C@H](O[C@@H]8O[C@H](CO)[C@@H](O)[C@H](O)[C@H]8O)[C@H]7O[C@@H]7O[C@@H](C)[C@H](O)[C@@H](O)[C@H]7O)CC[C@]6(C)[C@H]5CC[C@]34C)N2C1` [α-solanine]?
**A.** toxicity to the Colorado potato beetle [3]: more toxic; inhibition of SGT2 activity [2]: 39%
